Results published in US8969388B1, “Substituted pyrazolone compounds and methods of use” (Calitor Sciences, LLC, priority 2012, dated 2015).
Where two headings read alike, the source gives them in different places.

Tests used:
[1] = Compound stability in human liver microsomes; type: in vitro ADME; settings: pH 7.4; for half-life at 5 μM: human liver microsomes 0.5 mg protein/mL, compound 5 μM, NADPH, 37° C., read-out: Human T1/2; for CLint scaled at 5 μM: human liver microsomes, in vivo CLint extrapolated
Protocol: (§1) Human or rat liver microsomes incubations were conducted in duplicate in polypropylene tubes. The typical incubation mixtures consisted of human liver microsomes (0.5 mg protein/mL), compounds of interest (5 μM) and NADPH (1.0 mM) in a total volume of 200 μL potassium phosphate buffer (PBS, 100 mM, pH 7.4). Compounds were dissolved in DMSO and diluted with PBS such that the final concentration of DMSO was 0.05%. The enzymatic reactions were commenced with the addition of protein after a 3-min preincubation and incubated in a water bath open to the air at 37° C. Reactions were terminated at various time points (0, 5, 10, 15, 30, 60 min) by adding equal volume of ice-cold acetonitrile. The samples were stored at −80° C. until LC/MS/MS assays.
(§2) The concentrations of compounds in the incubation mixtures of human liver microsomes were determined by a LC/MS/MS method. The ranges of the linearity in the concentration range were determined for each tested compounds.
(§3) A parallel incubation was performed using denatured microsomes as the negative control, and reactions were terminated at various time points (0, 15, 60 min) after incubation at 37° C.
(§4) Dextromethorphan (70 μM) was selected as the positive control, and reactions were terminated at various time points (0, 5, 10, 15, 30, 60 min) after incubation at 37° C. Both positive and negative control samples were included in each assay to ensure the integrity of the microsomal incubation system.
(§5) The concentrations of compounds in human liver microsome incubations were plotted as a percentage of the relevant zero time point control for each reaction. The in vivo CLint were extrapolated (ref: Naritomi Y, Terashita S, Kimura S, Suzuki A, Kagayama A, Sugiyama Y. Prediction of human hepatic clearance from in vivo animal experiments and in vitro metabolic studies with liver microsomes from animals and humans. Drug Metabolism and Disposition 2001, 29: 1316-1324.)

[2] = Compound stability in rat liver microsomes; type: in vitro ADME; settings: for half-life at 5 μM: pH 7.4, compound 5 μM, NADPH, 37° C., read-out: Rat T1/2; for CLint scaled at 5 μM: pH 7.4, in vivo CLint extrapolated
Protocol: as §1, §2, §3, §4, §5

[3] = Pharmacokinetics after intravenous and oral administration in rats; type: in vivo; settings: for F: oral bioavailability, oral dose not given; for AUC(0-t) / half-life / Vd: rat, plasma; for clearance (CL) after iv dosing / AUC(0-t) / half-life / Vd: iv dosing; for Vd: read-out: Vss
Protocol: The compounds disclosed herein are assessed in pharmacokinetic studies in mice, rats, dogs or monkeys. The compounds are administered as a water solution, 2% HPMC+1% TWEEN®80 in water solution, 5% DMSO+5% solutol in saline, 4% MC suspension or capsule. For the intravenous administration, the animals are generally given at 1 or 2 mg/kg dose. For the oral (p.o.) dosing, mice and rats are generally given 5 or 10 mg/kg dose, and dogs and monkeys are generally given 10 mg/kg dose. The blood samples (0.3 mL) are drawn at 0.25, 0.5, 1.0, 2.0, 3.0, 4.0, 6.0, 8.0, 12 and 24 h time points or 0.083, 0.25, 0.5, 1.0, 2.0, 4.0, 6.0, 8.0 and 24 h time points and centrifuged at 3,000 or 4000 rpm for 2 to 10 min. The plasma solutions are collected, stored at −20° C. or −70° C. until analyzed by LC/MS/MS as described above.

KDR (h) = target: T1, KDR (h) (Homo sapiens, UniProt P35968); assay: KINOMEscan competition binding assay, KDR (h)
T1 construct: host or cells: E. coli BL21-derived host (T7 phage) or HEK-293
Protocol: (§6) Alternatively, the kinase activities of the compounds can be measured using KINOMEscan™, which is based on a competition binding assay that quantitatively measures the ability of a compound to compete with an immobilized, active-site directed ligand. The assay was performed by combining three components: DNA-tagged kinase; immobilized ligand; and a test compound. The ability of the test compound to compete with the immobilized ligand was measured via quantitative PCR of the DNA tag.
(§7) For most assays, kinase-tagged T7 phage strains were prepared in an E. coli host derived from the BL21 strain. E. coli were grown to log-phase and infected with T7 phage and incubated with shaking at 32° C. until lysis. The lysates were centrifuged and filtered to remove cell debris. The remaining kinases were produced in HEK-293 cells and subsequently tagged with DNA for qPCR detection. Streptavidin-coated magnetic beads were treated with biotinylated small molecule ligands for 30 minutes at room temperature to generate affinity resins for kinase assays. The liganded beads were blocked with excess biotin and washed with blocking buffer (SEABLOCK™ (Pierce), 1% BSA, 0.05% TWEEN®20, 1 mM DTT) to remove unbound ligand and to reduce nonspecific binding. Binding reactions were assembled by combining kinases, liganded affinity beads, and test compounds in 1× binding buffer (20% SEABLOCK™, 0.17×PBS, 0.05% TWEEN®20, 6 mM DTT). All reactions were performed in polystyrene 96-well plates in a final volume of 0.135 mL. The assay plates were incubated at room temperature with shaking for 1 hour and the affinity beads were washed with wash buffer (1×PBS, 0.05% TWEEN®20). The beads were then re-suspended in elution buffer (1×PBS, 0.05% TWEEN®20, 0.5 μM non-biotinylated affinity ligand) and incubated at room temperature with shaking for 30 minutes. The kinase concentration in the eluates was measured by qPCR.
(§8) The kinase assays described herein were performed using KINOMEscan™ Profiling Service at DiscoveRx Corporation, 42501 Albrae St. Fremont, Calif.

c-Met (h) = target: T2, c-Met (h) (Homo sapiens, UniProt P08581); assay: KINOMEscan competition binding assay, c-Met (h)
T2 construct: host or cells: E. coli BL21-derived host (T7 phage) or HEK-293
Protocol: as §6, §7, §8

U87MG glioblastoma cells = assay: U87MG tumor xenograft model, tumor growth inhibition; type: in vivo, athymic nude mice (BALB/cA nu/nu); settings: mice, oral gavage
Protocol: The efficacy of compounds disclosed herein was evaluated in a standard murine model of tumorigenesis. Human tumor cells (U87MG glioblastoma cells from ATCC) were expended in culture, harvested, and injected subcutaneously onto the rear flank of 6-7 week old female athymic nude mice (BALB/cA nu/nu, Hunan SLAC Laboratory Animal, Co.) (n=6-10 for vehicle group and for each dosing group). When tumors reached a volume of 100-250 mm^3, animals were randomly divided into vehicle control (for example, 5% DMSO+70% Captisol® (30%), 7% HCl (pH1), 18% Captisol® (30%); or 7% DMSO, 7% HCl (pH1), 70% Captisol® (30%), 16% Captisol® (30%), or the like) and compound groups. Subsequent administration of compound by oral gavage begins anywhere from day 0 to day 15 post tumor cell challenge and generally continues with once a day for the duration of the experiment.
Progression of tumor growth is assessed by tumor volumes and recorded as a function of time. The long (L) and short (W) axes of the subcutaneous tumors were measured with calipers twice weekly, and the tumor volume (TV) calculated as (L×W^2)/2). TGI was calculated from the difference between the median tumor volumes of vehicle-treated and drug-treated mice, expressed as a percentage of the median tumor volume of the vehicle-treated control group, by the following relation:
[formula] Initial statistical analysis is done by repeated measures analysis of variance (RMANOVA), followed by Scheffe psot hoc testing for multiple comparisons. Vehicle alone (5% DMSO+70% Captisol® (30%), 7% HCl (pH1), 18% Captisol® (30%); or 7% DMSO, 7% HCl (pH1), 70% Captisol® (30%), 16% Captisol® (30%), or the like) is the negative control.

T2 sequence (P08581 25-1390): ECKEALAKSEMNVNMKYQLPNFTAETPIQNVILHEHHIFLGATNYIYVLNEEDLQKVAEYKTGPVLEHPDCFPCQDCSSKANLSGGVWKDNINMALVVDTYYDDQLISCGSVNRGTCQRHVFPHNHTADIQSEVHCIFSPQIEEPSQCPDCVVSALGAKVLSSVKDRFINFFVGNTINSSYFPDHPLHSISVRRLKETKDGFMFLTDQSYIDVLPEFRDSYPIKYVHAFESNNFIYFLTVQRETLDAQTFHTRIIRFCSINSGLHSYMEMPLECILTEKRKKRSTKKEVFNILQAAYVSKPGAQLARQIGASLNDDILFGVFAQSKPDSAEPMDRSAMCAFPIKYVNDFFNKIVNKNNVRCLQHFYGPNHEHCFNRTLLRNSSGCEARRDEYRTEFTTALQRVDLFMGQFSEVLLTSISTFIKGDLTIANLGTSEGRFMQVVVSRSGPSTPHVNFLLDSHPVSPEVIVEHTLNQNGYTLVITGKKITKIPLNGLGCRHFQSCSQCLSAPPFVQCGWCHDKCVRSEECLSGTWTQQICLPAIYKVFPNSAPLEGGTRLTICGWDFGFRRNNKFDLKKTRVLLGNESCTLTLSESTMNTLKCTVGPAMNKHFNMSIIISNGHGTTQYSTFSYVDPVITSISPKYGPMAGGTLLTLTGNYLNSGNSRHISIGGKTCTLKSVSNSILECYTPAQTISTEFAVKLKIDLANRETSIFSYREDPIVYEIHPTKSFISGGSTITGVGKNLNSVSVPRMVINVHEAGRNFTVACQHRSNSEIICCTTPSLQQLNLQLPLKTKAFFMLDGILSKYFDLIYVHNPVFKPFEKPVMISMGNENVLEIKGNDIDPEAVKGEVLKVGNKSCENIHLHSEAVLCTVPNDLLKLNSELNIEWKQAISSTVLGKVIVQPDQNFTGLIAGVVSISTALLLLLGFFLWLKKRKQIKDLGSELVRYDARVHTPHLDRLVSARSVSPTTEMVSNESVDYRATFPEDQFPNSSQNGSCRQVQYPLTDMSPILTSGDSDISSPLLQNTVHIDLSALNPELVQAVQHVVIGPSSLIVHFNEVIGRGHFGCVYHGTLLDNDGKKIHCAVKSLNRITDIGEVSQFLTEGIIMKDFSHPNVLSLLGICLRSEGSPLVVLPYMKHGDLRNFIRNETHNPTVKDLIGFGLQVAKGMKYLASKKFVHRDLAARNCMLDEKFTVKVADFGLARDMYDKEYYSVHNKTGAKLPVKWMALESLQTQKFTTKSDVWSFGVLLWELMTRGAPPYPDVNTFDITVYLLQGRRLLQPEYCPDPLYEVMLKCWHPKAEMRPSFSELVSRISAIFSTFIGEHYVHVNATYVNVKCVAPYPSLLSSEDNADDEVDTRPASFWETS
T1 sequence (P35968 20-1356): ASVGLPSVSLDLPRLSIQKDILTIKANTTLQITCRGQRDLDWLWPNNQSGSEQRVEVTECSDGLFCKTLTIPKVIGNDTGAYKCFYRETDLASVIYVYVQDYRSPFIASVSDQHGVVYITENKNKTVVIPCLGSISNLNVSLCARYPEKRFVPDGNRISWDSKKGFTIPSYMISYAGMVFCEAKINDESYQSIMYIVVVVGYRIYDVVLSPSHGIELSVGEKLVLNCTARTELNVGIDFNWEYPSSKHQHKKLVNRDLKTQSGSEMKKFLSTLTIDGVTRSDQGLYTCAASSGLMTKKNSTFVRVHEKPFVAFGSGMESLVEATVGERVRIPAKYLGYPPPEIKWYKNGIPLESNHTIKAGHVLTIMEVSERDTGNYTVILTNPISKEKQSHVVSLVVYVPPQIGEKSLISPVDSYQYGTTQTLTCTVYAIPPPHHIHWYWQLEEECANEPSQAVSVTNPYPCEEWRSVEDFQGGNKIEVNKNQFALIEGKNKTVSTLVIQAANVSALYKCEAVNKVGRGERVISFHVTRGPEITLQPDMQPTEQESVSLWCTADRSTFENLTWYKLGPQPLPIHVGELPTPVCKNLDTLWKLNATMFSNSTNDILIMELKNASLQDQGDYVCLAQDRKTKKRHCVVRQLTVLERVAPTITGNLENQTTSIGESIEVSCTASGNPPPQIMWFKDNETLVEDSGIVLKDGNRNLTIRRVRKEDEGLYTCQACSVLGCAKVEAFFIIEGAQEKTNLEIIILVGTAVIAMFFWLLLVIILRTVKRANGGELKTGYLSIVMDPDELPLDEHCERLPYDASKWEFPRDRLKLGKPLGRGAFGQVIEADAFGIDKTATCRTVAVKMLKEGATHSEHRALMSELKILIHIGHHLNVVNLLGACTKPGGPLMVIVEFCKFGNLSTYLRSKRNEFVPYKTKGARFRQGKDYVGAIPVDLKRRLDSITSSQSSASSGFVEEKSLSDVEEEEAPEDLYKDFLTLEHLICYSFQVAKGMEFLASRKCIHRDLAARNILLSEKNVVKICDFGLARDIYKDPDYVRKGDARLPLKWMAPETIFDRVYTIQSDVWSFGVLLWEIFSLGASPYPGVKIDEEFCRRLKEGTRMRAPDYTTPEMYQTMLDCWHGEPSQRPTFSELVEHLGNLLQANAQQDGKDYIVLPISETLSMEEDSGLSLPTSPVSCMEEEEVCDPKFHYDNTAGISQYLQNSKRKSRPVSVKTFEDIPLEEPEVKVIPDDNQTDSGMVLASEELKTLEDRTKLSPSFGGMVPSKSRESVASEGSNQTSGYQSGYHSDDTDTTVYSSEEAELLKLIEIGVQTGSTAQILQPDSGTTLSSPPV

SMILES	half-life at 5 μM [1]	CLint scaled at 5 μM [1]	half-life at 5 μM [2]	CLint scaled at 5 μM [2]	clearance (CL) after iv dosing ([3]; 1 mg/kg)	F ([3]; iv dose 1 mg/kg)	AUC(0-t) ([3]; 1 mg/kg)	half-life ([3]; 1 mg/kg)	Vd ([3]; 1 mg/kg)	Kd (KDR (h))	Kd (c-Met (h))	clearance (CL) after iv dosing ([3]; 2 mg/kg)	F ([3]; iv dose 2 mg/kg)	AUC(0-t) ([3]; 2 mg/kg)	half-life ([3]; 2 mg/kg)	Vd ([3]; 2 mg/kg)	TGI % (on last day of dosing) (U87MG glioblastoma cells; 6 mg/kg, 14 days)	TGI % (on last day of dosing) (U87MG glioblastoma cells; 20 mg/kg, 14 days)	TGI % (on last day of dosing) (U87MG glioblastoma cells; 60 mg/kg, 14 days)	other results
Cc1c(C(=O)Nc2cc(F)c(Oc3ccnc(N)c3)cc2F)c(=O)n(-c2ccccc2)n1C [Ex. 8, N-(4-((2-aminopyridin-4-yl)oxy)-2,5-difluorophenyl)-1,5-dimethyl-3-oxo-2-phenyl-2,3-dihydro-1H-pyrazole-4-carboxamide]										1500 nM	4.8 nM	10.2 mL/min/kg	85.1%	3350 ng·h/mL	0.82 h	0.51 L/kg	13%	25%	43%	
CC(=O)Nc1cc(Oc2ccc(NC(=O)c3c(C)n(C)n(-c4ccccc4)c3=O)nc2)ccn1 [Ex. 17, N-(5-((2-acetamidopyridin-4-yl)oxy)pyridin-2-yl)-1,5-dimethyl-3-oxo-2-phenyl-2,3-dihydro-1H-pyrazole-4-carboxamide]										25 nM	20 nM	0.5 mL/min/kg	59.7%	69900 ng·h/mL	7.29 h	0.22 L/kg				TGI % (on last day of dosing) (U87MG glioblastoma cells; 6 mg/kg, 12 days): 26%; TGI % (on last day of dosing) (U87MG glioblastoma cells; 20 mg/kg, 12 days): 56%; TGI % (on last day of dosing) (U87MG glioblastoma cells; 60 mg/kg, 12 days): 85%
Cc1c(C(=O)Nc2ccc(Oc3ccnc(NC(=O)N4CCOCC4)c3)cn2)c(=O)n(-c2ccccc2)n1C [Ex. 18, N-(4-((6-(1,5-dimethyl-3-oxo-2-phenyl-2,3-dihydro-1H-pyrazole-4-carboxamido)pyridin-3-yl)oxy)pyridin-2-yl)morpholine-4-carboxamide]					4 mL/min/kg	77.2%	4290 ng·h/mL	1.23 h	0.36 L/kg	39 nM	2.9 nM						28%	49%	57%	

Continued, in another order:

half-life at 5 μM [1]	CLint scaled at 5 μM [1]	half-life at 5 μM [2]	CLint scaled at 5 μM [2]	clearance (CL) after iv dosing ([3]; 1 mg/kg)	F ([3]; iv dose 1 mg/kg)	AUC(0-t) ([3]; 1 mg/kg)	half-life ([3]; 1 mg/kg)	Vd ([3]; 1 mg/kg)	Kd (KDR (h))	Kd (c-Met (h))	clearance (CL) after iv dosing ([3]; 2 mg/kg)	F ([3]; iv dose 2 mg/kg)	AUC(0-t) ([3]; 2 mg/kg)	half-life ([3]; 2 mg/kg)	Vd ([3]; 2 mg/kg)	SMILES	TGI % (on last day of dosing) (U87MG glioblastoma cells; 6 mg/kg, 14 days)	TGI % (on last day of dosing) (U87MG glioblastoma cells; 20 mg/kg, 14 days)	TGI % (on last day of dosing) (U87MG glioblastoma cells; 60 mg/kg, 14 days)	other results
12.4 h	2.34 mL/min/kg	1.02 h	40.6 mL/min/kg	17 mL/min/kg	177.1%	922 ng·h/mL	2.69 h	1.61 L/kg	23 nM	4.4 nM						Cc1c(C(=O)Nc2ccc(Oc3ccnc(N)c3Cl)c(F)c2)c(=O)n(-c2ccccc2)n1C [Ex. 3, N-(4-((2-amino-3-chloropyridin-4-yl)oxy)-3-fluorophenyl)-1,5-dimethyl-3-oxo-2-phenyl-2,3-dihydro-1H-pyrazole-4-carboxamide]				TGI % (on last day of dosing) (U87MG glioblastoma cells; 10 mg/kg, 16 days): 53%; TGI % (on last day of dosing) (U87MG glioblastoma cells; 20 mg/kg, 16 days): 68%; TGI % (on last day of dosing) (U87MG glioblastoma cells; 40 mg/kg, 16 days): 85%
2.09 h	13.9 mL/min/kg	1.61 h	25.8 mL/min/kg								22 mL/min/kg	54.4%	1490 ng·h/mL	11.8 h	2.64 L/kg	Cc1c(C(=O)Nc2ccc(Oc3ccnc(N)c3)cc2F)c(=O)n(-c2ccccc2)n1C [Ex. 30, N-(4-((2-aminopyridin-4-yl)oxy)-2-fluorophenyl)-1,5-dimethyl-3-oxo-2-phenyl-2,3-dihydro-1H-pyrazole-4-carboxamide]				
2.44 h	11.8 mL/min/kg	0.611 h	67.8 mL/min/kg								8.83 mL/min/kg	70.3%	3910 ng·h/mL	3.29 h	0.4 L/kg	Cc1c(C(=O)Nc2ccc(Oc3ccnc(N)c3Cl)cc2F)c(=O)n(-c2ccccc2)n1C [Ex. 31, N-(4-((2-amino-3-chloropyridin-4-yl)oxy)-2-fluorophenyl)-1,5-dimethyl-3-oxo-2-phenyl-2,3-dihydro-1H-pyrazole-4-carboxamide]				
